Data from patent US5591741A, “Fungicidal spiroheterocyclic derivatives” (American Cyanamid Company, priority 1993, dated 1997).

How the values were obtained:
Botrytis cinerea = test: Direct protectant activity against broad bean grey mould (BCB); type: in vivo; details: direct protectant foliar spray, 600 ppm, 4 days
Outline: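 Protectant foliar test: lesion coverage assessed 4 days after inoculation and rated relative to untreated or diluent-sprayed plants. Compound applied at 600 ppm to cv The Sutton leaves 24 h before 10^6 conidia/ml suspension; incubation at 22 °C in high humidity.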

[1] = system: Erysiphe graminis f.sp. hordei; test: Activity against barley powdery mildew, direct therapeutic (EGT); type: in vivo; details: direct therapeutic foliar spray, 600 ppm, up to 7 days
Outline: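 A curative spray at 600 ppm was applied to single-leaf Golden Promise barley inoculated with powdery mildew conidia the previous day. After up to 7 days at 18 °C and 40% humidity, disease control was rated from percent leaf area sporulating relative to untreated or diluent-sprayed controls.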

Pyricularia oryzae = type: in vivo; details: rice seedlings, direct therapeutic foliar spray, 600 ppm, 4-5 days
Alternaria solani = test: Activity against tomato early blight (AS); type: in vivo; details: Table VI; tomato seedlings, contact prophylactic foliar spray, 4 days
Outline: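 Plants were challenged with A. solani conidia (10^4 spores/ml) 24 h after a protective foliar spray of compound in 50:50 acetone/water plus 0.04% Tween 20. Held humid at 21° C for 4 days, then percent leaf area with lesions was scored as a rating relative to controls.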

Venturia inaequalis = test: Activity against apple scab in-vitro (VII); type: cell-based; details: 10 ppm, 10 days, 20° C., mycelial growth
Outline: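 V. inaequalis propagules (5×10^4/ml, malt agar-grown) were exposed in half-strength PDB to 10 ppm final test compound delivered in acetone. Growth was scored after incubation for 10 days at 20° C, as a rating relative to untreated or diluent-sprayed controls.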

Leptosphaeria nodorum = test: Activity against wheat leafspot (LN); type: in vivo; details: direct therapeutic foliar spray, 600 ppm, 6-8 days
Outline: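 Therapeutic foliar spray: compound at 600 ppm applied to single-leaf wheat (cv Norman) 24 h after inoculation with 1.5×10^6 conidia/ml. Disease control scored after 6-8 days at 22° C and 70% humidity as lesions per leaf versus untreated or diluent-sprayed controls.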

Rhizoctonia solani = test: Activity against Rhizoctonia in-vitro (RSI); type: cell-based; details: 10 ppm, 10 days, 20° C., mycelial growth
Outline: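 Compound at a final 10 ppm (acetone vehicle) in half-strength PDB, inoculated with 5×10^4 fragments/ml of shaken-culture R. solani mycelium. After incubation at 20° C for 10 days, growth scored as a rating versus untreated or diluent-treated controls.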

[2] = system: Pseudocercosporella herpotrichoides; test: Activity against wheat eyespot in-vitro (PHI); type: cell-based; details: 10 ppm, 10 days, 20° C., mycelial growth
Outline: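 Mycelial growth was scored after 10 days at 20 °C against untreated or diluent controls. The broth was half-strength potato dextrose, holding 10 ppm test compound (from acetone) and 5×10^4 fragments/ml of the eyespot fungus.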

Plasmopara viticola = test: Antisporulant activity against vine downy mildew (PVA); type: in vivo; details: vine leaves, antisporulant foliar spray, 600 ppm, 750 l/ha
Outline: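 Cabernet Sauvignon vines (~8 cm) inoculated on lower leaf surfaces with 5×10^4 zoosporangia/ml, held 24 h at 21° C high humidity then 24 h glasshouse. Infected leaves sprayed underside with 600 ppm compound in 1:1 water/acetone, 0.04% Tween 20, 750 l/ha; 96 h glasshouse, 24 h humidity. Sporulating leaf area rated versus control.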

Phytophthora infestans = type: in vivo; details: tomato, direct protectant foliar spray
[3] = system: Erysiphe graminis f.sp. hordei; test: Direct protectant activity against barley powdery mildew (EGP); type: in vivo; details: direct protectant foliar spray, 8 days
Outline: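 Rating reflects percentage of leaf area with sporulation compared with untreated or diluent-sprayed controls. Protectant spray was applied to single-leaf barley (cv Golden Promise) 24 h before conidia inoculation. Plants were kept at 18 °C and 40% RH throughout, with 8 days of disease development.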

| Compound | disease control rating BCB (Botrytis cinerea) | disease control rating EGT [1] | disease control rating PO (Pyricularia oryzae) | disease control rating AS (Alternaria solani) | disease control rating VII (Venturia inaequalis) | disease control rating LN (Leptosphaeria nodorum) | disease control rating RSI (Rhizoctonia solani) | disease control rating PHI [2] | disease control rating PVA (Plasmopara viticola) | disease control rating PIP (Phytophthora infestans) | disease control rating EGP [3] |
| --- | --- | --- | --- | --- | --- | --- | --- | --- | --- | --- | --- |
| CCCCCN(CCCCC)C1COC2(CCC(C(C)(C)CC)CC2)C1 (centres unmarked) [Compound 50] | 0 (less than 50% disease control) | 2 (greater than 80% disease control) | 0 (less than 50% disease control) | 0 (less than 50% disease control) | 1 (about 50-80% disease control) | 0 (less than 50% disease control) | 0 (less than 50% disease control) | 0 (less than 50% disease control) | 0 (less than 50% disease control) | 0 (less than 50% disease control) | 2 (greater than 80% disease control) |
| CC(C)(C)C1CCC2(CC1)CC(NCC1CCCCC1)CO2 (centres unmarked) [Compound 82] | 2 (greater than 80% disease control) | 2 (greater than 80% disease control) | 0 (less than 50% disease control) | 0 (less than 50% disease control) | 0 (less than 50% disease control) | 1 (about 50-80% disease control) | 0 (less than 50% disease control) | 0 (less than 50% disease control) | 0 (less than 50% disease control) | 0 (less than 50% disease control) | 2 (greater than 80% disease control) |
| CCCN(CC1CCCCC1)C1COC2(CCC(C(C)(C)C)CC2)C1 (centres unmarked) [Compound 93] | 0 (less than 50% disease control) | 2 (greater than 80% disease control) | 0 (less than 50% disease control) | 0 (less than 50% disease control) | 0 (less than 50% disease control) | 0 (less than 50% disease control) | 1 (about 50-80% disease control) | 0 (less than 50% disease control) | 0 (less than 50% disease control) | 2 (greater than 80% disease control) | 2 (greater than 80% disease control) |
| CC(C)(C)C1CCC2(CC1)CC(N1CCC(c3ccccc3)CC1)CO2 (centres unmarked) [Compound 4] | 0 (less than 50% disease control) | 2 (greater than 80% disease control) | 0 (less than 50% disease control) | 0 (less than 50% disease control) | 1 (about 50-80% disease control) | 1 (about 50-80% disease control) | 0 (less than 50% disease control) | 1 (about 50-80% disease control) | 0 (less than 50% disease control) | 0 (less than 50% disease control) | 2 (greater than 80% disease control) |
| CC(C)(C)C1CCC2(CC1)CC(NCc1ccc(F)cc1)CO2 (centres unmarked) [Compound 30] | 0 (less than 50% disease control) | 2 (greater than 80% disease control) | 0 (less than 50% disease control) | 0 (less than 50% disease control) | 2 (greater than 80% disease control) | 0 (less than 50% disease control) | 0 (less than 50% disease control) | 0 (less than 50% disease control) | 0 (less than 50% disease control) | 0 (less than 50% disease control) | 2 (greater than 80% disease control) |
| CCCN(CC1(C)CCCCC1)C1COC2(CCC(C(C)(C)C)CC2)C1 (centres unmarked) [Compound 127] | 0 (less than 50% disease control) | 2 (greater than 80% disease control) | 0 (less than 50% disease control) | 0 (less than 50% disease control) | 1 (about 50-80% disease control) | 0 (less than 50% disease control) | 0 (less than 50% disease control) | 0 (less than 50% disease control) | 0 (less than 50% disease control) | 0 (less than 50% disease control) | 2 (greater than 80% disease control) |
| CCC(CC)N(C)C1COC2(CCC(C(C)(C)C)CC2)C1 (centres unmarked) [Compound 94] | 0 (less than 50% disease control) | 2 (greater than 80% disease control) | 0 (less than 50% disease control) | 0 (less than 50% disease control) | 0 (less than 50% disease control) | 1 (about 50-80% disease control) | 1 (about 50-80% disease control) | 0 (less than 50% disease control) | 0 (less than 50% disease control) | 0 (less than 50% disease control) | 2 (greater than 80% disease control) |
| CN(CC(C)(C)C)C1COC2(CCC(C(C)(C)C)CC2)C1 (centres unmarked) [Compound 131] | 0 (less than 50% disease control) | 2 (greater than 80% disease control) | 0 (less than 50% disease control) | 0 (less than 50% disease control) | 1 (about 50-80% disease control) | 0 (less than 50% disease control) | 0 (less than 50% disease control) | 0 (less than 50% disease control) | 0 (less than 50% disease control) | 0 (less than 50% disease control) | 2 (greater than 80% disease control) |
| CCCCCN(CC)C1COC2(CCC(C(C)(C)C)CC2)C1 (centres unmarked) [Compound 72] | 0 (less than 50% disease control) | 2 (greater than 80% disease control) | 0 (less than 50% disease control) | 0 (less than 50% disease control) | 1 (about 50-80% disease control) | 0 (less than 50% disease control) | 0 (less than 50% disease control) | 0 (less than 50% disease control) | 0 (less than 50% disease control) | 0 (less than 50% disease control) | 2 (greater than 80% disease control) |
| Cc1ccc(CNC2COC3(CCC(C(C)(C)C)CC3)C2)cc1 (centres unmarked) [Compound 28] | 0 (less than 50% disease control) | 2 (greater than 80% disease control) | 0 (less than 50% disease control) | 0 (less than 50% disease control) | 2 (greater than 80% disease control) | 0 (less than 50% disease control) | 0 (less than 50% disease control) | 0 (less than 50% disease control) | 0 (less than 50% disease control) | 0 (less than 50% disease control) | 2 (greater than 80% disease control) |
